From patent publication US5321023A, “Pyridoindolobenzodiazepines and derivatives as antipsychotics” (The Du Pont Merck Pharmaceutical Co., priority 1992, dated 1994)

System: rat
Assay: Conditioned Avoidance Responding in Rat
Format: in vivo, rat (male CDF)
Conditions: inhibition of conditioned avoidance responding, oral, tested 30-360 minutes after administration, % of vehicle control, read-out: Peak ED50
Text: Conditioned Avoidance Responding in Rat
The procedure utilized is a modification of the procedure of Cook and Weidley (Ann. NY Acad Sci.66: 740-752, 1957).
Apparatus: A Coulbourn Instruments large modular test cage (25×30×30 cm) with a pole suspended from the center of the ceiling and a stainless steel grid floor. A 0.75 mA pulsed current (250 msec on, 750 msec off) is delivered to the grid floor by a Coulbourn Instruments programmable shocker.
Animals: Male CDF rats are purchased from Charles River Breeding Laboratories (Wilmington, Mass.).
Test Procedure: Each trial lasts 25 seconds. Ten seconds after the rat is placed in the testing apparatus, footshock is delivered for 15 seconds. The rat is immediately removed from the testing apparatus. If the rat climbs the pole within the first 10 seconds, footshock is avoided and an avoidance response is recorded. If the rat climbs the pole during the footshock period, an escape response is recorded. If the animal fails to climb the pole during the 25 second trial period, an escape failure is recorded.
Drug testing is initiated after rats are well trained to consistently avoid footshock. Rats are tested for conditioned avoidance responding at various time intervals (30-360 minutes) after oral administration of test compound.
For each dose of test compound, inhibition of conditioned avoidance responding is expressed as a percentage of the corresponding Drug Vehicle (control) value. The percent antagonism is used to calculate ED50 values when appropriate.

Structure (SMILES) | ED50
Cc1cc2c3c(c1)c1c(n3-c3ccc(Cl)cc3NC2=O)CCN(C)C1 [Example 1, 11-chloro-1,2,3,4,8,9-hexahydro-3,6-dimethylpyrido[4',3':2,3]indolo[1,7-ab][1,5]benzodiazepin-8(9H)-one] | ≤ 20 mg/kg
Cc1cc2c3c(c1)c1c(n3-c3ccc(C(F)(F)F)cc3NC2=O)CCN(C)C1 [Example 3] | 20 to 50 mg/kg
Cc1cc2c3c(c1)c1c(n3-c3ccc(Cl)cc3NC2)CCN(C)C1 [Example 23, 11-chloro-1,2,3,4,8,9-hexahydro-3,6-dimethylpyrido[4',3':2,3]indolo[1,7-ab][1,5]benzodiazepine] | ≤ 20 mg/kg
Cc1cc2c3c(c1)c1c(n3-c3ccc(C(F)(F)F)cc3NC2)CCN(C)C1 [Example 25] | ≤ 20 mg/kg
